Reference: US5424205A, “Amyloidin protease and uses thereof” (Athena Neurosciences, Inc., priority 1993, dated 1995)
Where two headings read alike, the source gives them in different places. Starred links: 1 amine or outer side, 2 acyl side, 3 side chain; linkers in the order of their positions; H or OH if unused. Residues, ends and D or L forms follow the SMILES beside them. *: point of attachment. pNA = O=[N+]([O-])c1ccc(N*)cc1; Suc = O=C(CCC(=O)[*:2])[*:1]; MeOSuc = COC(=O)CCC(=O)*; Cbz = O=C(OCc1ccccc1)*; Boc = CC(C)(C)OC(=O)*

Tests used:
[1] = molecular target: T1, amyloidin (Homo sapiens, UniProt P52888); test: Inhibition of amyloidin by various inhibitors (APP592-601 peptide cleavage); assay type: biochemical
T1 construct: from tissue; a purification from blood is also described
T1 sequence (P52888 whole entry): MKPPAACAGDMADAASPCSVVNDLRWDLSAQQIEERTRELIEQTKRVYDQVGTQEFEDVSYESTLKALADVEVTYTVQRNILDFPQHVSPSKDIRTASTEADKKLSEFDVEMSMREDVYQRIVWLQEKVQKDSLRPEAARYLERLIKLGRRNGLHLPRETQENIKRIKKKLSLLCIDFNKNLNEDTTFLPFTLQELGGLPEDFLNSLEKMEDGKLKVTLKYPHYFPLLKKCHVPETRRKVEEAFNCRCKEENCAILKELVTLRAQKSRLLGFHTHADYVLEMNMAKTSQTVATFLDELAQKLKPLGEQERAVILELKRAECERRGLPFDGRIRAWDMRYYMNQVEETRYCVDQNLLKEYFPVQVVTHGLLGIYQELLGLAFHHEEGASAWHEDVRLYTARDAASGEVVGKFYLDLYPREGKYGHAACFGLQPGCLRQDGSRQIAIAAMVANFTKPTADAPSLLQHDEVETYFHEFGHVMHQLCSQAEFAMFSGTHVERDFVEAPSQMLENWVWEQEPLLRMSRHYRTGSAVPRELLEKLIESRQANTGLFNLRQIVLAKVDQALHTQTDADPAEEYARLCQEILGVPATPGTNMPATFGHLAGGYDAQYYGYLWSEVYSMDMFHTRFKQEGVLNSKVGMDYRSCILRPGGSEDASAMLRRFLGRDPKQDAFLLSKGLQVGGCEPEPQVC

[2] = molecular target: APP592-601 (N-acetyl-Ser-Glu-Val-Lys-Met-Asp-Ala-Glu-Phe-Arg)
[3] = molecular target: Boc-AAd-Pna
[4] = molecular target: Z-RR-pNA
[5] = molecular target: Z-AA-pNA
[6] = molecular target: Ac-AD-pNA
[7] = molecular target: Suc-AAPF-pNA
[8] = molecular target: Z-RK-pNA
[9] = molecular target: Suc-AAPM-pNA
[10] = molecular target: MeS-AAPV-pNA
[11] = molecular target: Ac-EVKM-PNA
[12] = molecular target: human amyloidin protease (human)
[13] = molecular target: T1, amyloidin; test: Cleavage of short peptide para-nitroanilide substrates by amyloidin (A405); assay type: biochemical; conditions: pH 7.5; up to 2 hours
[14] = test system: brain protease; conditions: TLC; 125I-labelled peptide; Abraham et al; cited from earlier work
[15] = molecular target: T1, amyloidin; test: Cleavage of APP592-601 and its analogs by amyloidin (subsite requirements); assay type: biochemical; conditions: pH 7.5, CaCl2, 37° C., 60 min; RP-HPLC
Procedure: Routinely, 25 ul of enzyme solution were mixed with 10 ul of 1M Tris, pH 7.5, 5 ul 10 mM CaCl2, and 10 ul of a 2 mg/ml Stock solution of APP592-601 in water, or 20 mM Tris, pH 7.5, 0.15M NaCl, in 1.5 ml polypropylene microfuge tubes. The reaction mixtures were incubated for 60 min at 37° C. in a water bath, then quenched with 450 ul ice-cold ethanol, and incubated on ice for a further 20 min. They were centrifuged at 15,000×g for 10 min, and the supernatants transferred to new polypropylene tubes and dried under vacuum. The residue was dissolved in 0.5 ml water, centrifuged at 15,000×g for 5 min, and 200 ul of the supernatant injected onto a 0.46×30 cm Vydac C18 column equilibrated with 0.1% trifluoroacetic acid in water, at 1 ml/min. The column was immediately eluted with a linear gradient to 40% acetronitrile in 0.1% trifluoroacetic acid in water, over 20 minutes. The elution was monitored at 220 nm, and peaks were individually collected, hydrolyzed in 6N HCl at […] for 2 hr, then subjected to quantitative amino-acid analysis in an Applied Biosystems amino-acid analyzer. Once identified, times of elution were used to identify cleavage patterns.
In order to test the subsite requirements of amyloidin in the APP592-601 cleavage assay, analogs of this peptide substrate were synthesized.
Following synthesis and purification, the peptides were then incubated with amyloidin under conditions identical to those developed with APP592-601. The underlined residues designated changes from the native peptide sequence while the arrows indicate peptide cleavage sites. [drawing 5]

[16] = molecular target: T1, amyloidin; test: Cleavage of full-length APP from baculovirus cells by amyloidin; assay type: biochemical; conditions: certain preliminary conditions
[17] = molecular target: soybean trypsin inhibitor (Sigma Chemicals) immobilized on CH-Sepharose; test: affinity column of immobilized soybean trypsin inhibitor; activity measured in the flow-through

CC(C)C[C@H](NP(=O)(O)O[C@@H]1O[C@@H](C)[C@H](O)[C@@H](O)[C@H]1O)C(=O)N[C@@H](Cc1c[nH]c2ccccc12)C(=O)O [phosphoramidon]
remaining activity at 100 µg/mL ([1]; assay conc. 0.1 mg/ml, 30 min pre-incubation, room temperature, read-out: % Control Activity): 79% | inhibitory effect on amyloidin ([1]; in words): only weakly inhibitory

human amyloidin protease (enzyme)
Specific Activity (area/min/mg), DAEFR area by RP-HPLC [2]: 2080 area/min/mg | increase in absorbance at 405 nm [3]: 0 | increase in absorbance at 405 nm [4]: 0 | increase in absorbance at 405 nm [5]: 0 | increase in absorbance at 405 nm [6]: 0 | increase in absorbance at 405 nm [7]: 0 | increase in absorbance at 405 nm [8]: 0 | increase in absorbance at 405 nm [9]: 0 | increase in absorbance at 405 nm [10]: 0 | increase in absorbance at 405 nm [11]: 0

aprotinin
% Control Activity [1]: 102% | inhibitory effect on amyloidin [1]: nor did aprotinin

α1-proteinase inhibitor
% Control Activity (cleavage of APP592-601) (% control activity) [12]: 98

COC(=O)CCC(=O)N[C@@H](C)C(=O)N[C@@H](C)C(=O)N1CCC[C@H]1C(=O)N[C@H](C(=O)Nc1ccc([N+](=O)[O-])cc1)C(C)C [MeS-AAPV-pNA, Methoxysuccinylalanyl-alanyl-prolyl-valyl-] (MeOSuc-AAPV-pNA)
cleavage of p-NA substrate by amyloidin (increase in A405) [13]: 0

α1-PI: general plasma serine proteinase inhibitor
% Control Activity ([1]; assay conc. 30 ug/ml, 30 min pre-incubation, room temperature): 98% | inhibitory effect on amyloidin ([1]; in words): Neither α-1-proteinase inhibitor or α-1-antichymotrypsin, two general plasma serine proteinase inhibitors, had any inhibitory effect

CC(C)C[C@H](NC(=O)[C@@H](NC(=O)N[C@@H](Cc1ccccc1)C(=O)O)[C@@H]1CCN=C(N)N1)C(=O)N[C@H](C=O)Cc1ccccc1 [chymostatin]
remaining activity at 25 µg/mL ([1]; read-out: % Control Activity): 77%

HSEVKMDAEF
sites of cleavage by brain protease [14]: primarily at three sites, between the Lys-Met, Met-Asp, and Asp-Ala, with some cleavage obtained at His-Ser

c1cnc2c(c1)ccc1cccnc12 [1,10-phen., 1,10phenanthroline]
remaining activity at 100 µM ([1]; assay conc. 0.1 mM, stock in DMSO, 30 min pre-incubation, room temperature, read-out: % Control Activity): 75% | inhibitory effect on amyloidin ([1]; in words): only weakly inhibitory

CC(=O)N[C@@H](CO)C(=O)N[C@@H](CCC(=O)O)C(=O)N[C@H](C(=O)N[C@@H](CCCCN)C(=O)N[C@@H](C)C(=O)N[C@@H](CC(=O)O)C(=O)N[C@@H](C)C(=O)N[C@@H](CCC(=O)O)C(=O)N[C@@H](Cc1ccccc1)C(=O)N[C@@H](CCCNC(=N)N)C(N)=O)C(C)C [replacement of Met596 by Ala] (Ac-SEVKADAEFR-NH2)
site of cleavage by amyloidin [15]: loss of cleavage at this site, but cleavage shifted to the Lys595-Ala596 bond

CSCC[C@H](NC(=O)[C@H](CCCCN)NC(=O)[C@@H](NC(=O)[C@H](CCC(=O)O)NC(C)=O)C(C)C)C(=O)Nc1ccc([N+](=O)[O-])cc1 [Ac-EVKM-PNA, acetylglutamyl-valyl-lysyl-methinyl-pNA] (Ac-EVKM-pNA)
cleavage of p-NA substrate by amyloidin (increase in A405) [13]: 0

CSCC[C@H](NC(=O)[C@H](CCC(N)=O)NC(=O)[C@@H](NC(=O)[C@H](CCC(=O)O)NC(=O)[C@H](CO)NC(C)=O)C(C)C)C(=O)N[C@@H](CC(=O)O)C(=O)N[C@@H](C)C(=O)N[C@@H](CCC(=O)O)C(=O)N[C@@H](Cc1ccccc1)C(=O)N[C@@H](CCCNC(=N)N)C(N)=O [Gln595 analog] (Ac-SEVQMDAEFR-NH2)
site of cleavage by amyloidin [15]: all the cleavage by amyloidin was at the Met-Asp bond

N=C(N)NCCC[C@H](NC(=O)OCc1ccccc1)C(=O)N[C@@H](CCCNC(=N)N)C(=O)Nc1ccc([N+](=O)[O-])cc1 [Z-RR-pNA, benzyloxycarbonyl arginylarginyl-] (Cbz-Arg-Arg-pNA)
cleavage of p-NA substrate by amyloidin (increase in A405) [13]: 0

α1-antichymotrypsin
% Control Activity (cleavage of APP592-601) (% control activity) [12]: 121

CC(C)C[C@H](NC(=O)[C@H]1O[C@@H]1C(=O)O)C(=O)NCCCCN=C(N)N [E-64]
remaining activity at 1 µg/mL ([1]; assay conc. 1 ug/ml, 30 min pre-incubation, room temperature, read-out: % Control Activity): 119% | inhibitory effect on amyloidin ([1]; in words): no inhibitory effect

CC(=O)N[C@@H](C)C(=O)N[C@@H](CC(=O)O)C(=O)Nc1ccc([N+](=O)[O-])cc1 [Ac-AD-pNA, Acetylalanyl-aspartyl-] (Ac-Ala-Asp-pNA)
cleavage of p-NA substrate by amyloidin (increase in A405) [13]: 0

O=S(=O)(F)Cc1ccccc1 [PMSF, phenylmethylsulfonyl fluoride]
% Control Activity [1]: 69%

Butyloxycarbonylalanyl-alanyl-aspartyl- (Boc-Ala-Ala-Asp-pNA; SMILES C[C@H](NC(=O)OC(C)(C)C)C(=O)N[C@@H](C)C(=O)N[C@@H](CC(=O)O)C(=O)Nc1ccc([N+](=O)[O-])cc1) [Boc-AAd-Pna]
cleavage of p-NA substrate by amyloidin (increase in A405) [13]: 0

O=C(O)CN(CCN(CC(=O)O)CC(=O)O)CC(=O)O [EDTA, ethylenediaminetetraacetic acid]
cleavage of APP592-601 by amyloidin [1]: no detectable cleavage | inhibitory effect on amyloidin [1]: strongly inhibited

full-length protein (APP): full-length protein (APP) produced by baculovirus cells transformed with the gene encoding APP
cleavage of full-length APP by amyloidin [16]: did not cleave

N=C(N)NCCC[C@H](NC(=O)OCc1ccccc1)C(=O)N[C@@H](CCCCN)C(=O)Nc1ccc([N+](=O)[O-])cc1 [Z-RK-pNA, benzyloxycarbonylarginyl-lysyl-] (Cbz-Arg-Lys-pNA)
cleavage of p-NA substrate by amyloidin (increase in A405) [13]: 0

C[C@H](NC(=O)OCc1ccccc1)C(=O)N[C@@H](C)C(=O)Nc1ccc([N+](=O)[O-])cc1 [Z-AA-pNA, benzyloxycarbonylalanyl-alanyl-] (Cbz-Ala-Ala-pNA)
cleavage of p-NA substrate by amyloidin (increase in A405) [13]: 0

CSCC[C@@H](C=O)NC(=O)[C@H](CC(C)C)NC(=O)[C@H](CC(C)C)NC(C)=O [Calp. Inh. II] (Ac-Leu-Leu-Met-aldehyde)
remaining activity at 50 µg/mL ([1]; assay conc. 50 ug/ml, 30 min pre-incubation, room temperature, read-out: % Control Activity): 130% | inhibitory effect on amyloidin ([1]; in words): no inhibitory effect

CSCC[C@H](NC(=O)[C@@H]1CCCN1C(=O)[C@H](C)NC(=O)[C@H](C)NC(=O)CCC(=O)O)C(=O)Nc1ccc([N+](=O)[O-])cc1 [Suc-AAPM-pNA, Suc-Ala-Ala-Pro-Met-pNA] (Suc-AAPM-pNA)
cleavage of p-NA substrate by amyloidin (increase in A405) [13]: 0

C[C@H](NC(=O)CCC(=O)O)C(=O)N[C@@H](C)C(=O)N1CCC[C@H]1C(=O)N[C@@H](Cc1ccccc1)C(=O)Nc1ccc([N+](=O)[O-])cc1 [Suc-AAPF-pNA, Succinylalanyl-alanyl-prolyl-phenylalanyl-] (Suc-AAPF-pNA)
cleavage of p-NA substrate by amyloidin (increase in A405) [13]: 0

B1: rat mast cell protease I (RMCP I) (protein)
chain: IIGGVESRPHSRPYMAHLEITTERGYKATCGGFLVTRQFVMTAAHCKGRETTVTLGVHDVSKTESTQQKIKVEKQIVHPNYNFYSNLHDIMLLKLQKKAKVTPAVDVIPLPQPSDFLKPGKMCRAAGWGQTGVTKPTSNTLREVKQRIMDKEACKNYFHYNYNFQVCVGSPRKIRSAYKGDSGGPLVCAGVAHGIVSYGRGDAKPPAVFTRISPYVPWINKVIKGKDLTSLSLHESESPS
percent of Suc-Ala-Ala-Pro-Phe-pNA hydrolysing activity bound to the matrix [17]: 95% of this activity had bound to the matrix
